Assay results as given in US20210137828A1, “Cannabidiol Sublingual Spray Formulations” (priority 2019, published 2021).

Columns and labels:
[1] = 700 milligrams per day for 6 weeks; cited from earlier work
breast tumor cell lines = conditions: different breast tumor cell lines; cited from earlier work
[2] = test system: vascular damage, vascular hyperpermeability; conditions: high glucose environment, inflammation or induction of type 2 diabetes in animal models; cited from earlier work
[3] = test system: chronic inflammatory and neuropathic pain; conditions: rodents; cited from earlier work
non-cancer cells = conditions: compared with breast tumor cell lines; cited from earlier work
seizure frequency = conditions: cited from earlier work
toxin-induced vomiting = conditions: low doses; cited from earlier work
[4] = test system: human experimental psychosis; conditions: cited from earlier work
seizures = conditions: doses up to 25 milligrams per kilogram of body weight; cited from earlier work
[5] = test system: estrogen receptor-positive and estrogen receptor-negative breast cancer cells; conditions: cited from earlier work
anxiety = conditions: patients with social anxiety disorder; cited from earlier work
incidence of diabetes = conditions: non-obese diabetic mice, cited from earlier work
[6] = test system: non-tumorigenic, mammary cells; conditions: at concentrations effective in tumor cells; cited from earlier work
[7] = Impurity stability of CBD sublingual spray formulation; assay type: physicochemical; parameters: unit not given here
Experimental: Stability data was established for formulations with 25 mg/spray, 0.2% sucralose, 0.4% strawberry flavor, and 10% ethanol in the presence of MCT oil. […] This can be extrapolated to assigning a one year expiration at room temperature for lipid based formulation. See Table 1 through 2 for stability data of impurities and assay.

C=C(C)[C@@H]1CCC(C)=C[C@H]1c1c(O)cc(CCCCC)cc1O [CBD, cannabidiol]
Overt toxicity in humans [1]: did not show any overt toxicity
Inhibition of growth of breast tumor cell lines (breast tumor cell lines): potently and selectively inhibited the growth
Protection against vascular damage [2]: protects against the vascular damage
Analgesic tolerance [3]: without causing analgesic tolerance
Suppression of chronic inflammatory and neuropathic pain [3]: significantly suppressed chronic inflammatory and neuropathic pain
Potency in non-cancer cells (non-cancer cells): significantly less potency in non-cancer cells
Parents reporting a reduction in their child's seizure frequency (seizure frequency; 16 of 19 parents): 84%
Parents reporting greater than 80 percent reduction in seizure frequency (seizure frequency; eight of 19 parents): 42%
Side effects (seizure frequency; parent survey, children with epilepsy): drowsiness and fatigue
Parents reporting 25-60 percent seizure reduction (seizure frequency; six of 19 parents): 32%
Parents reporting complete seizure freedom (seizure frequency; two of 19 parents): 11%
Effect on toxin-induced vomiting (toxin-induced vomiting): suppresses toxin-induced vomiting
Effect on human experimental psychosis [4]: prevents human experimental psychosis
Tolerability (seizures): generally well-tolerated
Cell death of breast cancer cells [5]: induced a concentration-dependent cell death
Effect on anxiety (anxiety): reduce anxiety
Incidence of diabetes (incidence of diabetes; 86 percent in non-treated mice): 30%
Insulitis, histological examination of pancreatic islets (incidence of diabetes): significantly reduced insulitis
Plasma levels of pro-inflammatory cytokines (incidence of diabetes): significant reduction
Effect on non-tumorigenic mammary cells [6]: little effect
CBD peak (RRT 1.00) in impurity stability data ([7]; T = 0): 99.24
CBD peak (RRT 1.00) in impurity stability data ([7]; T = 2wk 25 C.): 99.05
CBD peak (RRT 1.00) in impurity stability data ([7]; T = 2wk 40 C.): 98.60
CBD peak (RRT 1.00) in impurity stability data ([7]; T = 4wk 25 C.): 98.75
CBD peak (RRT 1.00) in impurity stability data ([7]; T = 4wk 40 C.): 97.96
